Measured values reported in patent US10882864B2, “Process for preparing BTK inhibitors” (Genentech, Inc., priority 2016, dated 2021).
≈ marks a conversion by molar mass, not a printed value. Read-outs that look alike come from different tables or passages of the source.

Assay: Solubility in various solvents (sonicated at 25° C., centrifuged, filtered, HPLC)
Format: physicochemical
Conditions: thermodynamic from solid, read-out: Solubility (mg/mL at 25° C.)
Experimental: (§1) The solubility of compound 141 was evaluated in various solvents. In the evaluation, a compound 141 sample was place into a 1.5 mL vial, 1 mL of the solvent was added, and the mixture was sonicated at 25° C. for 5 minutes. The mixture was then centrifuged, the upper supernatant was filtered through a microfilter, a filtrate aliquot was taken, diluted with acetonitrile, filtered, and injected into an HPLC column. The results are summarized in Example 8 Table 4 below where the purity of compound 141 was greater than 98 area % by HPLC.
as §1, with “compound 180” for “compound 141”, “was placed” for “was place”, “Example 9” for “Example 8”

[1] = organic solvent or mixture, solvent Acetone
[2] = organic solvent or mixture, solvent Acetonitrile
[3] = organic solvent or mixture, solvent Dichloromethane
[4] = organic solvent or mixture, solvent Dimethylformamide
[5] = organic solvent or mixture, solvent Ethanol
[6] = organic solvent or mixture, solvent Ethyl acetate
[7] = organic solvent or mixture, solvent Heptane
[8] = organic solvent or mixture, solvent Isopropanol
[9] = organic solvent or mixture, solvent Methanol
[10] = organic solvent or mixture, solvent Methyl tetrahydrofuran
[11] = organic solvent or mixture, solvent Petroleum ether
[12] = organic solvent or mixture, solvent Tetrahydrofuran
[13] = organic solvent or mixture, solvent Toluene
[14] = organic solvent or mixture, solvent tert-Butyl methyl ether

Row | Structure (SMILES) | solubility at 5 min [1] [mg/mL] | solubility at 5 min [2] [mg/mL] | solubility at 5 min [3] [mg/mL] | solubility at 5 min [4] [mg/mL] | solubility at 5 min (organic solvent or mixture, solvent Dioxane) [mg/mL] | solubility at 5 min [5] [mg/mL] | solubility at 5 min [6] [mg/mL] | solubility at 5 min [7] [mg/mL] | solubility at 5 min [8] [mg/mL] | solubility at 5 min [9] [mg/mL] | solubility at 5 min [10] [mg/mL] | solubility at 5 min [11] [mg/mL] | solubility at 5 min [12] [mg/mL] | solubility at 5 min [13] [mg/mL] | solubility at 5 min [14] [mg/mL] | solubility at 5 min (solvent Water) [mg/mL]
1 | C[C@H]1CN(C2COC2)CCN1c1ccc(Nc2cc(Br)cn(C)c2=O)nc1 [Compound 180] | 3.73 (≈ 8.59 mM) | 2.3 (≈ 5.3 mM) | 50.6 (≈ 116 mM) | 20.8 (≈ 47.9 mM) | 44.7 (≈ 103 mM) | 1.52 (≈ 3.5 mM) | 4.53 (≈ 10.4 mM) | 0.03 (≈ 0.0691 mM) | 2.65 (≈ 6.1 mM) | 1.35 (≈ 3.11 mM) | 7.19 (≈ 16.6 mM) | 0.03 (≈ 0.0691 mM) | 24 (≈ 55.3 mM) | 9.81 (≈ 22.6 mM) | 1.25 (≈ 2.88 mM) | 0.52 (≈ 1.2 mM)
2 | C[C@H]1CN(C2COC2)CCN1c1ccc(N)nc1 [Compound 141] | 154 (≈ 619 mM) | 97.7 (≈ 393 mM) | 269 (≈ 1080 mM) | 200 (≈ 803 mM) | – | 154 (≈ 618 mM) | 82.3 (≈ 331 mM) | 0.32 (≈ 1.29 mM) | 222 (≈ 895 mM) | 221 (≈ 892 mM) | 83 (≈ 334 mM) | 0.26 (≈ 1.05 mM) | 175 (≈ 705 mM) | 20.6 (≈ 83 mM) | 7.39 (≈ 29.8 mM) | 30.7 (≈ 124 mM)
